Assay results taken from ChEMBL document CHEMBL4368916, “Design, Synthesis, and Biological Evaluation of Retinoic Acid-Related Orphan Receptor γt (RORγt) Agonist Structure-Based Functionality Switching Approach from In House RORγt Inverse Agonist to RORγt Agonist” (J Med Chem, 2019).
Activity calls are given as the source filed them. The rule behind the calls is not given here.

How the values were obtained:
[1] = target: T1, Nuclear receptor ROR-gamma (Mus musculus) (UniProt P51450); experiment: Inverse agonist activity at RORgammat in mouse naive CD4+ T cells assessed as […] of IL17 production at 0.001 to 10 uM after 4 days by ELISA; format: cell-based
T1 sequence (whole entry): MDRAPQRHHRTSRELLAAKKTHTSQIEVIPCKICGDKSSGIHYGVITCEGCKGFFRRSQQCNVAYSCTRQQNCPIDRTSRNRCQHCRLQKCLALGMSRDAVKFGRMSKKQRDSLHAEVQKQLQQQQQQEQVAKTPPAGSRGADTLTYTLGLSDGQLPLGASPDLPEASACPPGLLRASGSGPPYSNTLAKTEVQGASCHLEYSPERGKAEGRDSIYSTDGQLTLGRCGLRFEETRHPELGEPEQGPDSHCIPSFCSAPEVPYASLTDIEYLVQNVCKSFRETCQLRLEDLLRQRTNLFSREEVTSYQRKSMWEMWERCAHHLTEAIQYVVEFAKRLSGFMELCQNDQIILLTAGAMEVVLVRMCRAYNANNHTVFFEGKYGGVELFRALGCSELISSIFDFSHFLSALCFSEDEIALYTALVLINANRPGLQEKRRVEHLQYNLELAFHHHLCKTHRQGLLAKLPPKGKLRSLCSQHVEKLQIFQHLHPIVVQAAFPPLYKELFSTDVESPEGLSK

[2] = AUC (0 to 8 hrs) in ICR mouse at 0.1 mg/kg, iv or 1 mg/kg, po by LC/MS/MS analysis; format: ADME, organism-based; conditions: in vivo
[3] = tested on: HepG2; experiment: Cytotoxicity against human HepG2 cells at 100 uM; format: cell-based; conditions: hepg2, 100 µM
[4] = target: T1, Nuclear receptor ROR-gamma (Mus musculus); experiment: Agonist activity at RORgammat in mouse naive CD4+ T cells assessed as induction of IL17 production at 0.1 to 3 uM after 4 days by ELISA; format: cell-based
[5] = MRT in ICR mouse at 0.1 mg/kg, iv or 1 mg/kg, po by LC/MS/MS analysis; format: ADME, organism-based; conditions: in vivo
[6] = Cmax in ICR mouse at 0.1 mg/kg, iv or 1 mg/kg, po by LC/MS/MS analysis; format: ADME, organism-based; conditions: in vivo
[7] = target: Cytochrome P450 3A4 (Homo sapiens, UniProt P08684); experiment: Inhibition of CYP3A4 (unknown origin) at 10 uM; format: ADME
[8] = Oral bioavailability in ICR mouse at 1 mg/kg by LC/MS/MS analysis; format: ADME, organism-based; conditions: in vivo

Chain of Cytochrome P450 3A4 (P08684 whole entry): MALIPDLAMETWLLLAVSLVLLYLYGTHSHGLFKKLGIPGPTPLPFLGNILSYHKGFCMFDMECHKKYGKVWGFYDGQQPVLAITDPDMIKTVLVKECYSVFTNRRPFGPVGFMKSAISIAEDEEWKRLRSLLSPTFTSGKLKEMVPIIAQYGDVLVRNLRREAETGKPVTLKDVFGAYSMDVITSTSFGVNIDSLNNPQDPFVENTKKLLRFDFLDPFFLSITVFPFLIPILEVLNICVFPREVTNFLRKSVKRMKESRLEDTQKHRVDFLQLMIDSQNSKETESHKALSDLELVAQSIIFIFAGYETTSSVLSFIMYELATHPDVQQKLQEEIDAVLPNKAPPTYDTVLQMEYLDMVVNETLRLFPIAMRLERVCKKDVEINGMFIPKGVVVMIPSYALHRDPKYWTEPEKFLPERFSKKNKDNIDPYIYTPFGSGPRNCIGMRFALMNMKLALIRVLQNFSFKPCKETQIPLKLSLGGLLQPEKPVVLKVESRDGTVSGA

Activity [1] | AUC(0-t) [2] | Activity [4] | MRT [5] | Cmax [6] | inhibition (INH) [7] | bioavailability [8] | Compound | Activity [3]
Active | – | – | – | – | – | – | COc1ccc2c(n1)CCN(C(=O)CCCC(=O)O)[C@H]2C(=O)Nc1cc(F)c2c(c1)CCC2(C)C | –
– | 1.72 µg·h/mL | Dose-dependent effect | 4.1 h | 0.227 µg/mL | Not Active | 19% | CCOc1ccccc1CN1CCc2cc(NC(=O)[C@H]3c4ccc(OC)nc4CCN3C(=O)CCCC(=O)O)ccc21 | Non-Toxic
– | – | Dose-dependent effect | – | – | – | – | CCOc1ccccc1CN1CCc2cc(NC(=O)[C@H]3c4ccc(OC)nc4CCN3C(C)=O)ccc21 | –
